Legend:
human orexin-1 receptor = human orexin-1 receptor (Homo sapiens (Human), UniProt O43613); assay: In vitro assay: intracellular calcium measurements (FLIPR), antagonistic activity; format: cell-based; conditions: CHO cells expressing human orexin-1 receptor, orexin-A agonist, geometric mean, read-out: IC50 Ox1
Description: (§1) In Vitro Assay: Intracellular Calcium Measurements:
(§2) Chinese hamster ovary (CHO) cells expressing the human orexin-1 receptor and the human orexin-2 receptor, respectively, are grown in culture medium (Ham F-12 with L-Glutamine) containing 300 μg/ml G418, 100 U/ml penicillin, 100 μg/ml streptomycin and 10% heat inactivated fetal calf serum (FCS). The cells are seeded at 20,000 cells/well into 384-well black clear bottom sterile plates (Greiner). The seeded plates are incubated overnight at 37° C. in 5% CO2.
(§3) Human orexin-A as an agonist is prepared as 1 mM stock solution in MeOH: water (1:1), diluted in HBSS containing 0.1% bovine serum albumin (BSA), NaHCO3: 0.375 g/l and 20 mM HEPES for use in the assay at a final concentration of 3 nM.
(§4) Antagonists are prepared as 10 mM stock solution in DMSO, then diluted in 384-well plates using DMSO followed by a transfer of the dilutions into in HBSS containing 0.1% bovine serum albumin (BSA), NaHCO3: 0.375 g/l and 20 mM HEPES. On the day of the assay, 50 μl of staining buffer (HBSS containing 1% FCS, 20 mM HEPES, NaHCO3: 0.375 g/l, 5 mM probenecid (Sigma) and […] of the fluorescent calcium indicator fluo-4 AM (1 mM stock solution in DMSO, containing 10% pluronic) is added to each well. The 384-well cell-plates are incubated for 50 min at 37° C. in 5% CO2 followed by equilibration at RT for 30 min before measurement.
(§5) Within the Fluorescent Imaging Plate Reader (FLIPR Tetra, Molecular Devices), antagonists are added to the plate in a volume of 10 μl/well, incubated for 120 min and finally 10 μl/well of agonist is added. Fluorescence is measured for each well at 1 second intervals, and the height of each fluorescence peak is compared to the height of the fluorescence peak induced by an approximate EC70 (for example 5 nM) of orexin-A with vehicle in place of antagonist. The IC50 value (the concentration of compound needed to inhibit 50% of the agonistic response) is determined and may be normalized using the obtained IC50 value of a on-plate reference compound. Optimized conditions are achieved by adjustment of pipetting speed and cell splitting regime. The calculated IC50 values may fluctuate depending on the daily cellular assay performance. Fluctuations of this kind are known to those skilled in the art. Average IC50 values from several measurements are given as geometric mean values.

human orexin-2 receptor = human orexin-2 receptor (Homo sapiens (Human), UniProt O43614); assay: as above; format: cell-based; conditions: CHO cells expressing human orexin-2 receptor, orexin-A agonist, geometric mean, read-out: IC50 Ox2
human orexin-2 receptor, sequence (O43614 whole entry): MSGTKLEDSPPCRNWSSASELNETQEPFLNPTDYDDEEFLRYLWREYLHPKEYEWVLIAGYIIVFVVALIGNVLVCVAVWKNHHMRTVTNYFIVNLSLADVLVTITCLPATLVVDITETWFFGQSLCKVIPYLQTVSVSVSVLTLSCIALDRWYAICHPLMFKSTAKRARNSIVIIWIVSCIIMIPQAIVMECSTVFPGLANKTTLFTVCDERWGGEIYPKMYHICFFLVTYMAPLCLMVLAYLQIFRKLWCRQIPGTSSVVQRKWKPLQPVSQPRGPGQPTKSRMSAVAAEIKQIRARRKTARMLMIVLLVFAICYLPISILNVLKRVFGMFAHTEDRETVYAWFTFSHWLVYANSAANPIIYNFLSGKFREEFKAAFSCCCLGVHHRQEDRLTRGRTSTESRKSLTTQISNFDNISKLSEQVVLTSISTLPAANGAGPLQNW
Description: as §1, §2, §3, §4, §5

human orexin-1 receptor, sequence (O43613 whole entry): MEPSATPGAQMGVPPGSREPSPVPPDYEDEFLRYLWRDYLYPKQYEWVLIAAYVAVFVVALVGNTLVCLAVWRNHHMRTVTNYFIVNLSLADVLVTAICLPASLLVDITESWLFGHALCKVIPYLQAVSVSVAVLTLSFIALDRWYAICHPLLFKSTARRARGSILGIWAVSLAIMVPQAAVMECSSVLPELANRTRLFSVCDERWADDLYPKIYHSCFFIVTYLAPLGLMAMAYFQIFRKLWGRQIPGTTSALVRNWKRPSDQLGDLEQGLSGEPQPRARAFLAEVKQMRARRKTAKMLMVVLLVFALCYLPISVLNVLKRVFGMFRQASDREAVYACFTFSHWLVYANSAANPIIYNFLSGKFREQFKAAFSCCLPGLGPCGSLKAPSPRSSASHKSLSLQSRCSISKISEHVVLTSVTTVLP

SMILES	IC50 (human orexin-1 receptor)	IC50 (human orexin-2 receptor)
CSc1cccc2nc([C@@H]3CCCN3C(=O)c3nc(C4CC4)sc3-c3ccc(F)cc3)[nH]c12 [Ex. 1.70]	26 nM	26 nM
CSc1cccc2nc([C@@H]3CCCN3C(=O)c3nc(C)sc3-c3cc(F)cc(F)c3)[nH]c12 [Ex. 1.71]	95 nM	162 nM
COc1ccc(-c2nccnc2C(=O)N2CCC[C@H]2c2nc3cccc(SC)c3[nH]2)cc1 [Ex. 1.72]	112 nM	180 nM
CSc1cccc2nc([C@@H]3CCCN3C(=O)c3nccnc3-c3cccc(C(F)(F)F)c3)[nH]c12 [Ex. 1.73]	136 nM	282 nM
CSc1cccc2nc([C@@H]3CCCN3C(=O)c3nccnc3-c3cc(C)cc(F)c3)[nH]c12 [Ex. 1.74]	52 nM	100 nM
CSc1cccc2nc([C@@H]3CCCN3C(=O)c3ccccc3-c3ccc(C)c(C)c3)[nH]c12 [Ex. 1.75]	5 nM	9 nM
CSc1cccc2nc([C@@H]3CCCN3C(=O)c3ccccc3-n3nccn3)[nH]c12 [Ex. 1.76]	279 nM	17 nM
CSc1cccc2nc([C@@H]3CCCN3C(=O)c3cncnc3-c3ccc(C)cc3)[nH]c12 [Ex. 1.78]	102 nM	408 nM
CSc1cccc2nc([C@@H]3CCCN3C(=O)c3cnc(C)nc3-c3ccc(Cl)c(Cl)c3)[nH]c12 [Ex. 1.79]	5 nM	46 nM
CSc1cccc2nc([C@@H]3CCCN3C(=O)c3cnc(C)nc3-c3ccc(F)cc3)[nH]c12 [Ex. 1.80]	41 nM	564 nM
CSc1cccc2nc([C@@H]3CCCN3C(=O)c3cnc(C)nc3-c3cccc(Cl)c3)[nH]c12 [Ex. 1.81]	20 nM	116 nM
CSc1cccc2nc([C@@H]3CCCN3C(=O)c3cncnc3-c3ccc(Cl)c(Cl)c3)[nH]c12 [Ex. 1.82]	13 nM	17 nM
CSc1cccc2nc([C@@H]3CCCN3C(=O)c3cncnc3-c3ccc(C)c(C)c3)[nH]c12 [Ex. 1.83]	17 nM	36 nM
CSc1cccc2nc([C@@H]3CCCN3C(=O)c3cncnc3-c3ccc(Br)c(Cl)c3)[nH]c12 [Ex. 1.84]	14 nM	20 nM
CSc1cccc2nc([C@@H]3CCCN3C(=O)c3cnc(C)nc3-c3ccc(C)c(C)c3)[nH]c12 [Ex. 1.85]	5 nM	23 nM
COc1cccc(-c2nc(C)ncc2C(=O)N2CCC[C@H]2c2nc3cccc(SC)c3[nH]2)c1 [Ex. 1.86]	56 nM	118 nM
CSc1cccc2nc([C@@H]3CCCN3C(=O)c3cnc(C)nc3-c3ccccc3)[nH]c12 [Ex. 1.87]	30 nM	77 nM
CSc1cccc2nc([C@@H]3CCCN3C(=O)c3cncnc3-c3cccc(C)c3)[nH]c12 [Ex. 1.88]	102 nM	109 nM
CSc1cccc2nc([C@@H]3CCCN3C(=O)c3cncnc3-c3cc(Cl)cc(Cl)c3)[nH]c12 [Ex. 1.89]	39 nM	180 nM
CSc1cccc2nc([C@@H]3CCCN3C(=O)c3cnc(C)nc3-c3ccc(Br)c(Cl)c3)[nH]c12 [Ex. 1.90]	2 nM	14 nM
CSc1cccc2nc([C@@H]3CCCN3C(=O)c3cnc(C)nc3-c3cc(Cl)cc(Cl)c3)[nH]c12 [Ex. 1.91]	13 nM	25 nM
Cc1nc(C(=O)N2CCCC2c2nc3cc(Cl)c(Cl)cc3[nH]2)c(-c2cccc(Cl)c2)s1 (stereo not shown) [Ex. 1.92]	23 nM	69 nM
Cc1nc(C(=O)N2CCCC2c2nc3cc(Br)ccc3[nH]2)c(-c2cccc(Cl)c2)s1 (stereo not shown) [Ex. 1.93]	102 nM	458 nM
Cc1nc(C(=O)N2CCCC2c2nc3cc(C(F)(F)F)ccc3[nH]2)c(-c2cccc(Cl)c2)s1 (stereo not shown) [Ex. 1.94]	42 nM	414 nM
Cc1nc(C(=O)N2CCCC2c2nc3cc(C)c(C)cc3[nH]2)c(-c2cccc(Cl)c2)s1 (stereo not shown) [Ex. 1.95]	18 nM	15 nM
Cc1nc(C(=O)N2CCCC2c2nc3c(C)cccc3[nH]2)c(-c2cccc(Cl)c2)s1 (stereo not shown) [Ex. 1.96]	54 nM	43 nM

From US9732075B2, “Benzimidazole-proline derivatives” (IDORSIA PHARMACEUTICALS LTD, priority 2012, dated 2017)
